Where two headings read alike, the source gives them in different places. Each block holds one compound with its values, some of them ahead of it.
Key:
C57BL6/J wild type mice = assay: Single bolus of Dox in wild-type mice; cardiac parameters, blood counts, cardiac-resident leukocytes; type: in vivo
Protocol: (§1) Doxorubicin administration.
(§2) Hematopoietic cell parameter measurements. […] Hematopoietic parameters were analyzed using an Element HT5 Veterinary Hematology Analyzer (Heska, Loveland, Colorado, United States of America).

[1] = test system: myeloid-specific Trp53-deficient mice (Lyz2^Cre/+Trp53^fl/fl); assay: Dox-induced cardiotoxicity in myeloid-specific Trp53-deficient mice; details: Lyz2^Cre/+Trp53^fl/fl vs control mice treated with Dox
[2] = test system: myeloid-specific Trp53-deficient mice (Lyz2^Cre/+Trp53^fl/fl); details: mouse, in vivo
[3] = test system: mice transplanted with wild-type or Trp53 mutant cells
Ccr2-deficient mice = assay: Dox-induced cardiac toxicity in Ccr2-deficient mice; type: in vivo; details: Ccr2-deficient relative to wild-type mice, 15 μg/g split into 3 injections, 4 weeks
From the text: Mice. […] All strains are C57BL/6J background.
as §1

[4] = test system: lethally irradiated mice transplanted with Trp53-heterozygous cells; assay: Dox cardiotoxicity in myeloablative (competitive) BMT mice, 30% Trp53^+/− or wild-type cells
Protocol: as §1
Quantitative RT-PCR. Mouse total RNA was isolated using QIAzol reagent (Catalog No. 79306; Qiagen, Inc., Germantown, Maryland, United States of America), and was purified on the QIAcube. 1 μg RNA was reverse transcribed with a High-capacity cDNA Reverse Transcription Kit (Catalog No. 4368814; Thermo Fisher Scientific). qRT-PCR was performed with POWERUP™ SYBR™ Green reagent (Catalog No. 4367659; Thermo Fisher Scientific) in a QUANTSTUDIO™ 6 Flex PCR system (Thermo Fisher Scientific). Gene expression was calculated relative to 36b4 and normalized to controls. Data were calculated by AACt approach.

[5] = test system: Trp53 mutant hematopoietic cells; assay: Adoptive bone marrow transplantation model of Trp53 clonal hematopoiesis with cycles of Dox; flow cytometry chimerism and blood counts; type: in vivo, mice
Protocol: Non-myeloablative bone marrow transplantation.
as §1, §2

CXCR2 = target: T1, CXCR2 (Mus musculus, UniProt P35343); assay: CXCR2 inhibitor SB265610 in Dox-treated wild-type mice; type: in vivo; details: 2 mg/kg/day i.p.
T1 construct: from tissue; host or cells: whole animal: wild-type C57BL/6J mice (receptor on the animals' own neutrophils)
T1 sequence (P35343 1-359): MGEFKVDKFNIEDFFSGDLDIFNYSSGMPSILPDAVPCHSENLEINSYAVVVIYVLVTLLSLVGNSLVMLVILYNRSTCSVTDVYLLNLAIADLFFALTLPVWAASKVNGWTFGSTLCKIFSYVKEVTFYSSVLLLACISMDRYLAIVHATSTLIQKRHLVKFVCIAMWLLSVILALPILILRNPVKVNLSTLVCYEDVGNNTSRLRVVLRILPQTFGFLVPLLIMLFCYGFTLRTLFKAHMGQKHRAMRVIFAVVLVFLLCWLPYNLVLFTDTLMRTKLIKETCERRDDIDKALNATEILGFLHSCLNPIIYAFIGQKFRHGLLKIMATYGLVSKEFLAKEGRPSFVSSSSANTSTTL
Protocol: as §1
SB265610 (CXCR2 inhibitor) administration. SB265610 (1-(2-Bromophenyl)-3-(4-cyano-1H-benzo[d] [1,2,3]triazol-7-yl)urea, N-(2-Bromophenyl)-N′-(7-cyano-1H-benzotriazol-4-yl)urea; Catalog No. SML0421; Sigma-Aldrich, St. Louis, Missouri, United States of America) was used to inhibit neutrophil infiltration into tissues. Mice were injected intraperitoneally with 2 mg/kg of SB265610, once a day, over a time course that starts 1 day before the start of doxorubicin administration until the end of the study. The solution of SB265610 was prepared in sterile dimethyl sulfoxide (DMSO) to a concentration of 10 mg/ml. The aliquoted mixture was stored at −20° C. and thawed before use. The solution was mixed with corn oil (Sigma Catalog No. C8267) to minimize the toxic effect of DMSO just before injection. Injections were performed using a sterile syringe and needle (29G). The expiration date of the mixture coincided with the expiration date of the SB265610.

[6] = single bolus of Dox 15 μg/g i.p., up to 14 days
[7] = adoptive BMT mice treated with Dox
[8] = mice transplanted with wild-type cells, Dox cycles
[9] = mice with Trp53^R27OH mutant blood cells vs wild-type cells, Dox regimen
[10] = Trp53 heterozygous mutant vs wild-type bone marrow, 7 days after single Dox 15 μg/g
[11] = adoptive BMT mice, Dox in cycles vs saline

SMILES: COc1cccc2c1C(=O)c1c(O)c3c(c(O)c1C2=O)C[C@@](O)(C(=O)CO)C[C@@H]3O[C@H]1C[C@H](N)[C@H](O)[C@H](C)O1 [Dox, doxorubicin]
cardiac wall dimension and function (C57BL6/J wild type mice; single bolus of Dox 15 μg/g i.p., 14 days): reductions
body weight (C57BL6/J wild type mice; [6]): time-dependent loss
heart weight (C57BL6/J wild type mice; [6]): time-dependent loss
peripheral blood monocytes (C57BL6/J wild type mice; single bolus of Dox, 7-day timepoint): transient increase
peripheral blood neutrophils (C57BL6/J wild type mice; single bolus of Dox, at 7 days, sustained to 14 days): increase
neutrophil recruitment to the heart (C57BL6/J wild type mice; single bolus of Dox, levels maintained to 14 days): reached a peak at 7 days
cardiac-resident macrophage number (C57BL6/J wild type mice; single bolus of Dox, nadir at 7 days): decreased
cardiac-resident monocyte number (C57BL6/J wild type mice; single bolus of Dox, peak at 7 days): increased
survival [1]: reduced survival
myocardial transcripts that encode inflammatory mediators [2]: upregulation
capillary density in the myocardium [3, 7]: reduced capillary density
fibrosis in the myocardium [3, 7]: greater fibrosis
cardiac contractility (echocardiography) [3, 8]: deterioration
ventricular wall (echocardiography) [3, 8]: thinning
cardiac contractility (echocardiography) [3, 9]: significant reduction
ventricular wall (echocardiography) [3, 9]: wall thinning
functional impairment and wall thinning ([3]; mice with expanding Trp53^+/− clones vs wild-type cells, Dox cycles): significantly greater
cardiac dysfunction after Dox (Ccr2-deficient mice): comparable
heart transcripts of inflammatory mediators Il1b, Il6 and Tnf ([4]; 8 weeks after Dox, mutant Trp53 vs wild-type cells): significant increase
fractional shortening and posterior wall thickness of the heart ([4]; Trp53^+/− vs wild-type group, VAF 0.15, after Dox): significant reductions
neutrophil recruitment to the heart [4, 10]: greater neutrophil recruitment
numbers of Ly6C^hi monocytes or macrophages within cardiac tissue [4, 10]: no effect
proportions of donor-derived Trp53^+/− cells in bone marrow LSK, LT-HSC and GMP fractions ([5]; Dox vs saline control, at termination of the experiment): considerably higher
expansion of donor-derived Trp53^+/− cells in circulating cell populations [5, 11]: further expansion
expansion of transplanted wild-type cells in circulating cell populations [5, 11]: little or no effect
hemoglobin levels and absolute numbers of hematopoietic cell types ([5]; after the fourth cycle of Dox, prolonged administration): altered some of these parameters
expansion of donor-derived Trp53^R27OH clones in circulating leukocytes and bone marrow HSPC fractions ([5]; serial Dox administration, adoptive BMT): selective expansion

neutrophil influx to the hearts (CXCR2): reduced
effects of Dox on cardiac wall thinning and function (CXCR2; 14-day timepoint): reversed
SMILES: N#Cc1ccc(NC(=O)Nc2ccccc2Br)c2[nH]nnc12 [SB265610, 1-(2-Bromophenyl)-3-(4-cyano-1H-benzo[d] [1,2,3]triazol-7-yl)urea, N-(2-Bromophenyl)-N′-(7-cyano-1H-benzotriazol-4-yl)urea]
